Test results taken from BigSolDB 2.1.

CN/C(=C\[N+](=O)[O-])NCCSCc1csc(CN(C)C)n1
solubility (mole fraction)
Details	in acetone	in ethanol	in ethyl acetate	in methanol	in water
273.15 K	0.00283	0.00287	0.00029	0.0167	0.0225
278.15 K	0.0034	0.00381	0.00033	0.0211	0.0232
283.15 K	0.00432	0.00487	0.00043	0.027	0.0238
288.15 K	0.00552	0.00653	0.00058	0.0347	0.0247
293.15 K	0.00701	0.00867	0.00063	0.0447	0.0257
298.15 K	0.00806	0.0133	0.00082	0.0589	0.0297
303.15 K	0.0103	0.0167	0.00093	0.0765	0.0325
308.15 K	0.0128	0.0212	0.00148	0.103	0.036
313.15 K	0.0164	0.0301	0.00187	0.147	0.0402
318.15 K	0.0235	0.0376	0.00219	0.203	0.0463
323.15 K	0.0385	0.062	0.00269	–	0.0535
328.15 K	–	0.0955	0.00343	–	0.0653
333.15 K	–	0.179	0.0042	–	0.0809
338.15 K	–	–	0.0055	–	0.109
343.15 K	–	–	–	–	0.164
